Earlier results as cited in patent US20190187141A1, “Biomarkers for Detection and Treatment of Mast Cell Activity-Associated Disorders” (Arete Discoveries, Inc., priority 2016, published 2019).
Structures can show the parent of a compound that is named as a salt.

How the values were obtained:
[1] = system: lymphocytes, macrophages, mast cells and dendritic cells
[2] = open label, 20 MS patients
mast cells [3] = details: in vitro
mast cells [4] = system: mast cells
[5] = phase II study
[6] = phase II trial, 35 progressive MS patients
cultured mast cells = details: pannexin1 hemichannel dependent mechanism
mast cells [7] = details: AD animal models; connexin 43 and pannexin1 hemichannel dependent

Compound: Cc1ccc(NC(=O)c2ccc(CN3CCN(C)CC3)cc2)cc1Nc1nccc(-c2cccnc2)n1 [Imatinib]
- secretion of pro-inflammatory cytokines IFN-γ, TNF-α, IL-1β and IL-17 and MMPs [1]: inhibiting
- anti-proliferative activity and immunomodulatory effects ([1]; lymphocytes, macrophages, mast cells and dendritic cells): exerts anti-proliferative activity and immunomodulatory effects

Compound: OCCOCCN1CCN(C(c2ccccc2)c2ccc(Cl)cc2)CC1 (centres unmarked) [hydroxyzine]
- degranulation of mast cells within the thalamus (EAE; EAE): inhibit
- progression and severity of EAE (EAE; in vivo): inhibit the progression and severity of EAE
- neurological outcome in MS patients [2]: stability or improvement neurologically

Compound: COC(=O)/C=C/C(=O)OC [dimethyl fumarate]
- apoptosis of mast cells (mast cells [3]): induces apoptosis of mast cells in vitro

Compound: Cc1ccc(NC(=O)c2ccc(CN3CCN(C)CC3)cc2)cc1Nc1nc(-c2cccnc2)cs1 [masitinib]
- inhibition of survival, migration and activity of mast cells (mast cells [4]): effectively inhibits the survival, migration and activity of mast cells
- cognitive decline in AD patients [5]: some benefit in slowing cognitive decline
- efficacy in progressive MS [6]: some efficacy

Compound: Amyloid beta (Aβ) peptide 25-35 (GSNKGAIIGLM; Amyloid-beta protein 42; UniProt P05067 696-706, looked up, fragment) [amyloid beta peptide fragment 25-35]
- degranulation of cultured mast cells (cultured mast cells): causes rapid degranulation of cultured mast cells
- mast cell dye uptake and histamine release (mast cells [7]): promotes both connexin 43 and pannexinl hemichannel dependent mast cell dye uptake and histamine release
